Data set [1] has as its system Aspergillus niger ATCC 14604. The data set is described as follows: standard CMI evaluation. Format: cell-based. The following applies: tested at 683-8 mg/L, both products contain 21% LAE. The procedure: (§1) A precipitate of xanthan/LAE is formed when 150 mL of a solution containing 1.3% of xanthan gum and 300 mL of a solution containing 0.3% of LAE are mixed. Then, 2.5 g of white solid are isolated by filtration.

Data set [2] concerns Bacillus cereus ATCC 9634. Briefly: standard CMI evaluation. Format: cell-based. The following applies: tested at 683-8 mg/L, both products contain 21% LAE. The procedure: as §1
Data set [3] relates to Candida albicans ATCC 10231. Briefly: standard CMI evaluation. Format: cell-based. Conditions: tested at 683-8 mg/L, both products contain 21% LAE. The procedure: as §1
For data set [4], the system named is Citrobacter intermedium CECT 401. Briefly: standard CMI evaluation. The following applies: tested at 683-8 mg/L, both products contain 21% LAE. It is filed as cell-based. The procedure:
as §1

Data set [5] has as its system Enterobacter aerogenes CECT 684. Briefly: standard CMI evaluation. Format: cell-based. The following applies: tested at 683-8 mg/L, both products contain 21% LAE. Here is the method: as §1
Data set [6] relates to Escherichia coli ATCC 8739. The data set is described as follows: standard CMI evaluation. Format: cell-based. Conditions: tested at 683-8 mg/L, both products contain 21% LAE. The procedure: as §1
Data set [7] deals with Pseudomonas aeruginosa ATCC 9023. Briefly: standard CMI evaluation. It is filed as cell-based. Conditions: tested at 683-8 mg/L, both products contain 21% LAE. Here is the method: as §1
The test system of data set [8] is Rhodotorula ruba CECT 1158. The data set is described as follows: standard CMI evaluation. Format: cell-based. Conditions: tested at 683-8 mg/L, both products contain 21% LAE. Here is the method: as §1
Data set [9] relates to Salmonella typhimurium ATCC 16028. Briefly: standard CMI evaluation. It is filed as cell-based. Conditions: tested at 683-8 mg/L, both products contain 21% LAE. The procedure: as §1
The subject of data set [10] is Staphylococcus aureus ATCC 6538. The data set is described as follows: standard CMI evaluation. Format: cell-based. The following applies: tested at 683-8 mg/L, both products contain 21% LAE. Here is the method:
as §1

The next data set can be described thus: metabolism in rats. Format: in vivo.
The nature of another data set: toxicological studies. It is filed as in vivo. Conditions: animals and humans.

As for `CCCCCCCCCCCC(=O)N[C@@H](CCCN=C(N)N)C(=O)OCC.Cl` [LAE, ethyl ester of the lauramide of the arginine monohydrochloride], the CMI in [1] stood at 170 mg/L; in [2] it was 128 mg/L; in data set [3] it was 128 mg/L; in data set [4] it was 128 mg/L; in [5], 128 mg/L; in data set [6], 128 mg/L. For the same compound, the CMI amounted to 256 mg/L in [7], 128 mg/L in data set [8], 128 mg/L in data set [9] and 128 mg/L in data set [10]. Besides, the absorption and metabolism entry in “metabolism in rats” is “fast absorption and metabolisation into naturally-occurring amino acids and the fatty acid lauric acid”. The toxicity result in “toxicological studies” is given as “completely harmless”.

The values are drawn from patent US7662417B2, “Preservatives and protective systems” (Laboratorios Miret, S.A., priority 2002, dated 2010).
